Measured values as given in the supplement of paper PMC11061612.

Key:
Experiment in all cases: combination Emax (second highest fraction inhibited in the dose matrix, 72 h); higher = more inhibition; extreme values may be limits of the assay
[1] = system: RKO (Colorectal Carcinoma)
Method in brief: (§1)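 Cell lines in DMEM/F12 or RPMI with 10% FBS were plated in 1536-well plates, held 24 hours at 37°C, 5% CO2, then given two-drug dose matrices for 72 hours (DMSO typically 0.2%). Viability was read by CellTiter-Glo 2.0 luminescence and scaled as inhibition from 0 (vehicle wells) to 1 (blank wells). Combination Emax is the second-highest inhibition in the matrix; Bliss excess is observed combination effect minus expected EA + EB − EA·EB, EA and EB being single-agent effects.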

[2] = system: HO-1-u-1 (Oral Cavity Carcinoma)
Method in brief: as §1

[3] = system: SW1271 (Small Cell Lung Carcinoma)
Method in brief: as §1

[4] = system: CAPAN-1 (Pancreatic Carcinoma)
Method in brief: as §1

[5] = system: HDLM-2 (Hodgkin's Lymphoma)
Method in brief: as §1

[6] = system: MDA-MB-468 (Breast Carcinoma)
Method in brief: as §1

[7] = system: K5 (Thyroid Gland Carcinoma)
Method in brief: as §1

NB14 (Neuroblastoma) = system: NB14 (Neuroblastoma)
Method in brief: as §1

[8] = system: MHH-PREB-1 (B-Cell Non-Hodgkin's Lymphoma)
Method in brief: as §1

NCI-H2795 (Mesothelioma) = system: NCI-H2795 (Mesothelioma)
Method in brief: as §1

SH-4 (Melanoma) = system: SH-4 (Melanoma)
Method in brief: as §1

[9] = system: SUP-T1 (T-Lymphoblastic Leukemia)
Method in brief: as §1

[10] = system: SK-OV-3 (Ovarian Carcinoma)
Method in brief: as §1

[11] = system: OVCAR-8 (Ovarian Carcinoma)
Method in brief: as §1

[12] = system: NCI-H69 (Small Cell Lung Carcinoma)
Method in brief: as §1

[13] = system: SW626 (Colorectal Carcinoma)
Method in brief: as §1

[14] = system: HCC-15 (Squamous Cell Lung Carcinoma)
Method in brief: as §1

[15] = system: EN (Endometrial Carcinoma)
Method in brief: as §1

[16] = system: KYSE-410 (Esophageal Squamous Cell Carcinoma)
Method in brief: as §1

[17] = system: LB771-HNC (Head and Neck Carcinoma)
Method in brief: as §1

SMILES | combination Emax [1] | combination Emax [2] | combination Emax [3] | combination Emax [4] | combination Emax [5] | combination Emax [6] | combination Emax [7] | combination Emax (NB14 (Neuroblastoma)) | combination Emax [8] | combination Emax (NCI-H2795 (Mesothelioma)) | combination Emax (SH-4 (Melanoma)) | combination Emax [9] | combination Emax [10] | combination Emax [11] | combination Emax [12] | combination Emax [13] | combination Emax [14] | combination Emax [15] | combination Emax [16] | combination Emax [17]
Cc1c2c(nn1C)CSCc1cc(n(C)n1)CSc1cc(c3ccccc3c1)OCCCc1c(C(=O)O)n(C)c3c-2c(Cl)ccc13 [AZD5991] + CCN(CCO)CCCOc1ccc2c(Nc3cc(CC(=O)Nc4cccc(F)c4)[nH]n3)ncnc2c1 [AZD2811] (first compound max 1 µM, 7x7, partner max 1 µM) | 0.349 | 0.657 | 0.176 | 0.206 | 0.978 | 0.738 | 0.298 | 0.953 | 0.144 | 0.762 | 0.336 | 0.419 | 0.301 | 0.42 | 0.623 | 0.325 | 0.783 | 0.866 | 0.265 | 0.591
NC1(C(=O)N[C@@H](CCO)c2ccc(Cl)cc2)CCN(c2ncnc3[nH]ccc23)CC1 [Capivasertib] + COc1nnc2ccc(N3CCC(c4ccc(OCCN5CCN(C)C(=O)[C@H]5C)cc4)CC3)nn12 [AZD5153] (first compound max 10 µM, 7x7, partner max 1 µM) | 0.842 | 0.91 | 0.459 | 0.358 | 0.389 | 0.666 | 0.929 | 0.884 | 0.384 | 0.398 | 0.775 | 0.789 | 0.535 | 0.732 | 0.829 | 0.642 | 0.626 | 0.525 | 0.56 | 0.875
CCc1c2c(nc3ccc(O)cc13)-c1cc3c(c(=O)n1C2)COC(=O)[C@]3(O)CC [SN-38] + CN(C)CCCOc1ccc(-c2ccc3ncc4c(c3c2)n(C2CCOCC2)c(=O)n4C)cn1 [AZD0156] (first compound max 0.3 µM, 7x7, partner max 1 µM) | 0.91 | 0.676 | 0.707 | 0.781 | 0.341 | 0.735 | 0.512 | 0.918 | 0.701 | 0.808 | 0.27 | 0.853 | 0.517 | 0.849 | 0.738 | 0.428 | 0.879 | 0.157 | 0.254 | 0.0261
COc1cccc(OCCCN)c1-c1cc(Nc2cnc(C#N)cn2)n[nH]1 [Prexasertib] + C=CCn1c(=O)c2cnc(Nc3ccc(N4CCN(C)CC4)cc3)nc2n1-c1cccc(C(C)(C)O)n1 [AZD1775] (first compound max 1 µM, partner max 1 µM) | 0.974 | 0.986 | 0.699 | 0.577 | 0.612 | 0.645 | 0.742 | 1 | 0.977 | 0.804 | 0.742 | 0.848 | 0.875 | 0.998 | 0.955 | 0.695 | 0.542 | 0.859 | 0.584 | 0.622
CCN(CCO)CCCOc1ccc2c(Nc3cc(CC(=O)Nc4cccc(F)c4)[nH]n3)ncnc2c1 [AZD2811] + C[C@@H]1COCCN1C2=NC(=NC(=C2)C3(CC3)[S@](=N)(=O)C)C4=C5C=CNC5=NC=C4 [AZD6738] (first compound max 1 µM, 7x7, partner max 10 µM) | 0.853 | 0.852 | 0.595 | 0.442 | 0.515 | 0.563 | 0.635 | 0.998 | 0.797 | 0.674 | 0.31 | 0.777 | 0.547 | 0.797 | 0.726 | 0.581 | 0.824 | 0.609 | 0.355 | 0.46
CC1(C)CCC(CN2CCN(c3ccc(C(=O)NS(=O)(=O)c4ccc(NCC5CCOCC5)c([N+](=O)[O-])c4)c(Oc4cnc5[nH]ccc5c4)c3)CC2)=C(c2ccc(Cl)cc2)C1 [Venetoclax] + C1CN(CCC1(C(=O)N[C@@H](CCO)C2=CC=C(C=C2)Cl)N)C3=NC=NC4=C3C=CN4 [Capivasertib] (first compound max 1 µM, 7x7, partner max 3 µM) | 0.36 | 0.719 | 0.262 | 0.184 | 0.514 | 0.511 | 0.546 | 0.95 | 0.176 | 0.375 | 0.208 | 0.757 | 0.353 | 0.184 | 0.802 | 0.161 | 0.232 | 0.554 | 0.203 | 0.248
CC1(C)CCC(CN2CCN(c3ccc(C(=O)NS(=O)(=O)c4ccc(NCC5CCOCC5)c([N+](=O)[O-])c4)c(Oc4cnc5[nH]ccc5c4)c3)CC2)=C(c2ccc(Cl)cc2)C1 [Venetoclax] + C[C@@H]1COCCN1C2=NC(=NC(=C2)C3(CC3)[S@](=N)(=O)C)C4=C5C=CNC5=NC=C4 [AZD6738] (first compound max 1 µM, 7x7, partner max 10 µM) | 0.869 | 0.853 | 0.612 | 0.416 | 0.683 | 0.624 | 0.616 | 1 | 0.795 | 0.622 | 0.304 | 0.821 | 0.573 | 0.712 | 0.618 | 0.638 | 0.191 | 0.64 | 0.372 | 0.474
NC1(C(=O)N[C@@H](CCO)c2ccc(Cl)cc2)CCN(c2ncnc3[nH]ccc23)CC1 [Capivasertib] + Cn1cnc2c(F)c(Nc3ccc(Br)cc3Cl)c(C(=O)NOCCO)cc21 [Selumetinib] (first compound max 10 µM, 7x7, partner max 10 µM) | 0.876 | 0.878 | 0.674 | 0.476 | 0.205 | 0.741 | 0.864 | 0.313 | 0.205 | 0.871 | 0.909 | 0.682 | 0.473 | 0.303 | 0.466 | 0.65 | 0.693 | 0.646 | 0.532 | 0.51
CC1(C)CCC(CN2CCN(c3ccc(C(=O)NS(=O)(=O)c4ccc(NCC5CCOCC5)c([N+](=O)[O-])c4)c(Oc4cnc5[nH]ccc5c4)c3)CC2)=C(c2ccc(Cl)cc2)C1 [Venetoclax] + CN(C)CCCOc1ccc(-c2ccc3ncc4c(c3c2)n(C2CCOCC2)c(=O)n4C)cn1 [AZD0156] (first compound max 1 µM, 7x7, partner max 1 µM) | 0.381 | 0.413 | 0.207 | 0.184 | 0.362 | 0.377 | 0.374 | 0.98 | 0.14 | 0.46 | 0.279 | 0.616 | 0.239 | 0.219 | 0.548 | 0.111 | 0.215 | 0.426 | 0.172 | 0.124
CN(CCO)CC[C@H](CSc1ccccc1)Nc1ccc(S(=O)(=O)NC(=O)c2ccc(N3CCC([C@@H](O)c4ccccc4-c4ccc(Cl)cc4)CC3)cc2)cc1S(=O)(=O)C(F)(F)F [AZD4320] + C[C@@H]1COCCN1C2=NC(=NC(=C2)C3(CC3)[S@](=N)(=O)C)C4=C5C=CNC5=NC=C4 [AZD6738] (first compound max 1 µM, 7x7, partner max 10 µM) | 0.85 | 0.926 | 0.733 | 0.724 | 0.926 | 0.842 | 0.702 | 1 | 0.754 | 0.844 | 0.409 | 0.858 | 0.66 | 0.796 | 0.927 | 0.869 | 0.94 | 0.69 | 0.421 | 0.6
COc1cccc(OCCCN)c1-c1cc(Nc2cnc(C#N)cn2)n[nH]1 [Prexasertib] + C[C@@H]1COCCN1C2=NC(=NC(=C2)C3(CC3)[S@](=N)(=O)C)C4=C5C=CNC5=NC=C4 [AZD6738] (first compound max 1 µM, 7x7, partner max 10 µM) | 0.946 | 0.923 | 0.719 | 0.527 | 0.528 | 0.547 | 0.7 | 1 | 0.949 | 0.765 | 0.63 | 0.808 | 0.806 | 0.991 | 0.616 | 0.743 | 0.33 | 0.726 | 0.532 | 0.61
Cc1nc(Nc2ncc(C(=O)Nc3c(C)cccc3Cl)s2)cc(N2CCN(CCO)CC2)n1 [Dasatinib] + CC(=O)Nc1cccc(-n2c(=O)n(C3CC3)c(=O)c3c(Nc4ccc(I)cc4F)n(C)c(=O)c(C)c32)c1 [Trametinib] (first compound max 2 µM, 7x7, partner max 1 µM) | 0.885 | 0.713 | 0.928 | 0.615 | 0.12 | 0.621 | 0.929 | 0.465 | 0.0875 | 0.972 | 0.935 | 0.577 | 0.392 | 0.671 | 0.124 | 0.849 | 0.853 | 0.289 | 0.546 | 0.202
